According to ChEMBL document CHEMBL4610097, “Daphnane Diterpenoids from Daphne genkwa Inhibit PI3K/Akt/mTOR Signaling and Induce Cell Cycle Arrest and Apoptosis in Human Colon Cancer Cells” (J Nat Prod, 2020):
The source made the active and inactive calls. No cut-off for these calls is given here.

How the values were obtained:
SW-620 [1] = test: Induction of apoptosis in human SW620 cells assessed as viable cells at 11.84 uM after 24 hrs by annexin V/propidium iodide staining-based flow cytometric analysis (reference value: 96.9%); assay type: functional; settings: SW-620, 24 h, read-out: Activity
SW-620 [2] = test: Induction of cell cycle arrest in human SW620 cells assessed as accumulation at S phase at 11.84 uM after 24 hrs by propidium iodide staining-based flow cytometric analysis (reference value: 23.83%); assay type: functional
SW-620 [3] = test: Induction of apoptosis in human SW620 cells assessed as early apoptotic cells at 1.48 uM after 24 hrs by annexin V/propidium iodide staining-based flow cytometric analysis (reference value: 0.36%); assay type: functional
SW-620 [4] = test: Induction of apoptosis in human SW620 cells assessed as increase in cleaved PARP at 0.74 to 11.84 uM after 24 hrs by Western blot analysis; assay type: functional, cell-based
SW-620 [5] = test: Induction of apoptosis in human SW620 cells assessed as late apoptotic cells at 1.48 uM after 24 hrs by annexin V/propidium iodide staining-based flow cytometric analysis (reference value: 2.40%); assay type: functional
SW-620 [6] = test: Induction of apoptosis in human SW620 cells assessed as appearance of apoptotic bodies at 11.84 uM after 24 hrs by acridine orange/propidium iodide staining based microscopic analysis; assay type: functional, cell-based
SW-620 [7] = test: Induction of cell cycle arrest in human SW620 cells assessed as accumulation at S phase at 0.74 uM after 24 hrs by propidium iodide staining-based flow cytometric analysis (reference value: 23.83%); assay type: functional
SW-620 [8] = test: Induction of apoptosis in human SW620 cells assessed as late apoptotic cells at 2.96 uM after 24 hrs by annexin V/propidium iodide staining-based flow cytometric analysis (reference value: 2.40%); assay type: functional
SW-620 [9] = test: Induction of cell cycle arrest in human SW620 cells assessed as accumulation at G0/G1 phase at 5.92 uM after 24 hrs by propidium iodide staining-based flow cytometric analysis (reference value: 56.11%); assay type: functional
[10] = Inhibition of PI3K/Akt/mTOR signalling pathway in human SW620 cells assessed as reduction in Akt phosphorylation at 0.74 to 11.84 uM after 24 hrs by Western blot analysis; assay type: cell-based; settings: SW-620
SW-620 [11] = test: Induction of apoptosis in human SW620 cells assessed as necrotic cells at 1.48 uM after 24 hrs by annexin V/propidium iodide staining-based flow cytometric analysis (reference value: 0.30%); assay type: functional
SW-620 [12] = test: Induction of cell cycle arrest in human SW620 cells assessed as accumulation at G0/G1 phase at 2.96 uM after 24 hrs by propidium iodide staining-based flow cytometric analysis (reference value: 56.11%); assay type: functional
SW-620 [13] = test: Induction of apoptosis in human SW620 cells assessed as viable cells at 5.92 uM after 24 hrs by annexin V/propidium iodide staining-based flow cytometric analysis (reference value: 96.9%); assay type: functional; settings: SW-620, 24 h, read-out: Activity
SW-620 [14] = test: Induction of apoptosis in human SW620 cells assessed as increase in Bax/Bcl2 ratio at 0.74 to 11.84 uM after 24 hrs by Western blot analysis; assay type: functional, cell-based
SW-620 [15] = test: Induction of apoptosis in human SW620 cells assessed as increase in cleaved caspase-3 at 0.74 to 11.84 uM after 24 hrs by Western blot analysis; assay type: functional, cell-based
SW-620 [16] = test: Induction of cell cycle arrest in human SW620 cells assessed as accumulation at G2/M phase at 5.92 uM after 24 hrs by propidium iodide staining-based flow cytometric analysis (reference value: 20.06%); assay type: functional
SW-620 [17] = test: Induction of apoptosis in human SW620 cells assessed as early apoptotic cells at 11.84 uM after 24 hrs by annexin V/propidium iodide staining-based flow cytometric analysis (reference value: 0.36%); assay type: functional
SW-620 [18] = test: Downregulation of PI3K p85 expression in human SW620 cells at 0.74 to 11.84 uM after 24 hrs by Western blot analysis; assay type: functional, cell-based
SW-620 [19] = test: Induction of apoptosis in human SW620 cells assessed as necrotic cells at 2.96 uM after 24 hrs by annexin V/propidium iodide staining-based flow cytometric analysis (reference value: 0.30%); assay type: functional
RKO = test: Cytotoxicity against human RKO cells after 24 hrs by MTT assay; assay type: functional, cell-based
[20] = Inhibition of PI3K/Akt/mTOR signalling pathway in human SW620 cells assessed as reduction in mTOR phosphorylation at 0.74 to 11.84 uM after 24 hrs by Western blot analysis; assay type: cell-based; settings: SW-620
SW-620 [21] = test: Induction of morphological changes in human SW620 cells assessed as nuclear condensation at […] to 1.48 uM after 24 hrs by acridine orange/propidium iodide staining based microscopic analysis; assay type: functional, cell-based
SW-620 [22] = test: Induction of cell cycle arrest in human SW620 cells assessed as accumulation at S phase at 1.48 uM after 24 hrs by propidium iodide staining-based flow cytometric analysis (reference value: 23.83%); assay type: functional
SW-620 [23] = test: Induction of cell cycle arrest in human SW620 cells assessed as accumulation at S phase at 2.96 uM after 24 hrs by propidium iodide staining-based flow cytometric analysis (reference value: 23.83%); assay type: functional
SW-620 [24] = test: Induction of apoptosis in human SW620 cells assessed as early apoptotic cells at 0.74 uM after 24 hrs by annexin V/propidium iodide staining-based flow cytometric analysis (reference value: 0.36%); assay type: functional
SW-620 [25] = test: Induction of apoptosis in human SW620 cells assessed as increase in cleaved caspase-9 at 0.74 to 11.84 uM after 24 hrs by Western blot analysis; assay type: functional, cell-based
SW-620 [26] = test: Induction of apoptosis in human SW620 cells assessed as necrotic cells at 0.74 uM after 24 hrs by annexin V/propidium iodide staining-based flow cytometric analysis (reference value: 0.30%); assay type: functional
SW-620 [27] = test: Induction of cell cycle arrest in human SW620 cells assessed as accumulation at S phase at 5.92 uM after 24 hrs by propidium iodide staining-based flow cytometric analysis (reference value: 23.83%); assay type: functional
SW-620 [28] = test: Effect on mTOR expression in human SW620 cells at 0.74 to 11.84 uM after 24 hrs by Western blot analysis; assay type: cell-based; settings: sw-620, 24 h
SW-620 [29] = test: Induction of apoptosis in human SW620 cells assessed as viable cells at 0.74 uM after 24 hrs by annexin V/propidium iodide staining-based flow cytometric analysis (reference value: 96.9%); assay type: functional; settings: SW-620, 24 h, read-out: Activity
SW-620 [30] = test: Induction of apoptosis in human SW620 cells assessed as late apoptotic cells at 11.84 uM after 24 hrs by annexin V/propidium iodide staining-based flow cytometric analysis (reference value: 2.40%); assay type: functional
SW-620 [31] = test: Induction of cell cycle arrest in human SW620 cells assessed as accumulation at G2/M phase at 0.74 uM after 24 hrs by propidium iodide staining-based flow cytometric analysis (reference value: 20.06%); assay type: functional
SW-620 [32] = test: Induction of apoptosis in human SW620 cells assessed as late apoptotic cells at 5.92 uM after 24 hrs by annexin V/propidium iodide staining-based flow cytometric analysis (reference value: 2.40%); assay type: functional
SW-620 [33] = test: Induction of apoptosis in human SW620 cells assessed as viable cells at 1.48 uM after 24 hrs by annexin V/propidium iodide staining-based flow cytometric analysis (reference value: 96.9%); assay type: functional; settings: SW-620, 24 h, read-out: Activity

C=C(C)[C@@]12O[C@@]3(/C=C/C=C/CCCCC)O[C@@H]1[C@@H]1[C@H](O)[C@@](O)(CO)[C@@H](O)[C@]4(O)C(=O)C(C)=C[C@H]4[C@@]1(O3)[C@H](C)[C@H]2OC(=O)c1ccccc1
viability at 11.84 µM (SW-620 [1]): 1.33%
Activity (SW-620 [2]): 9.49%
Activity (SW-620 [3]): 5.64%
Activity (SW-620 [4]): Active
Activity (SW-620 [5]): 48.5%
Activity (SW-620 [6]): Active
Activity (SW-620 [7]): 14.24%
Activity (SW-620 [8]): 49.4%
Activity (SW-620 [9]): 84.75%
inhibition [10]: Active
Activity (SW-620 [11]): 0.43%
Activity (SW-620 [12]): 82.07%
viability at 5.92 µM (SW-620 [13]): 36.6%
Activity (SW-620 [14]): Active
Activity (SW-620 [15]): Active
Activity (SW-620 [16]): 3.52%
Activity (SW-620 [17]): 10.7%
Activity (SW-620 [18]): Active
Activity (SW-620 [19]): 0.33%
IC50 (RKO): 6.5 µM
inhibition [20]: Active
Activity (SW-620 [21]): Active
Activity (SW-620 [22]): 14.19%
Activity (SW-620 [23]): 12.76%
Activity (SW-620 [24]): 3.24%
Activity (SW-620 [25]): Active
Activity (SW-620 [26]): 0.1%
Activity (SW-620 [27]): 11.73%
Activity (SW-620 [28]): Non-Toxic
viability at 0.74 µM (SW-620 [29]): 80.8%
Activity (SW-620 [30]): 86.3%
Activity (SW-620 [31]): 8.83%
Activity (SW-620 [32]): 58.5%
viability at 1.48 µM (SW-620 [33]): 45.4%
